Key:
[1] = tested on: Haemonchus spp; test: In vitro nematicidal effect of hydrogen sulfide and chitinase, egg hatching; type: cell-based; settings: Haemonchus eggs, emerging larvae after 24 hours; fraction E = 1 − Ntto/Nc; mean of 4 replicas
Description: (§1) Eggs from zoonematodes Haemonchus spp and Trichostrongylus colubriformis and Dictyocaulus viviparus were used, as well as parasitic phytonematode larvae (juveniles 2) from Melodoigyne incognita.
(§2) Collections of Haemonchus spp and Trichostrongylus colubriformis nematodes were made from ovine (sheep) and bovine (cattle) abomasa, respectively. The adult female nematodes were washed in a physiological solution and treated with “Hibitane” (Chlorhexidine Acetate) at 0.5%, for 1 minute, the process developed at 37° C. Approximately 100 previously disinfected individuals were introduced into an Erlenmeyer containing 50 ml of LB medium solution, diluted 10 times in distilled sterile water, and were left laying their eggs overnight (8-10 hours).
(§3) From that moment on, manipulation was done under aseptic conditions in a vertical laminar flow, using 24-well tissue culture plates. The total volume of the medium that contained the females and the eggs was filtered with a sift net of 60 μm. The nematode eggs were trapped on the 30 μm net of a second sifts. It was introduced into a Hibitane solution at 0.5% for 3 minutes, followed by three washes with LB medium diluted 10 times in sterile distilled water.
(§4) Once disinfected, the eggs were removed from the sift and were carefully resuspended with a LB medium solution diluted 10 times in sterile distilled water. The final result of the distribution was checked by counting and registering the eggs in each well with an inverted Olympus microscope, observations of the uniformity of the evolutionary state in this phase were made too.
(§5) The Haemonchus spp and T. colubriformis' eggs hatch between 24 and 48 hours of incubation at 28° C., whereas the D. vivparus' eggs hatch before 24 hours. A good sample preparation is accomplished when in all the untreated controls more than 60% of hatching occurs in the previously foreseen times for each species.
(§6) The nematode's eggs and larvae were placed in a number of 100 individuals in approximately 2 ml of LB medium diluted 10 times. This volume was introduced into safety valves that allow the air to go through the liquid and, therefore, the gasses make contact with the eggs and larvae. Every valve was a replica for each treatment.
(§7) The hydrogen sulfide was obtained by a reaction against the chloride acid of two sulfide salts (Na2S and FeS), and from an anaerobial fermentation of bacterium Desulfovibrio desulfuricans subs. desulfuricans ATCC 27774 (isolated from an ovine rumen). The chitinolytic enzyme used was chitinase SIGMA C 1650, from bacterium Serratia marcescens.
(§8) The nematode's eggs and larvae under the study were subjected to the following treatments for 24 hours:
(§9) 1. Control treatment: chitinase not applied, and air circulated through the valve.
(§10) 2. Chitinase treatment: chitinase at a rate of 0.2 units per replica.
(§11) 3. Sulfide treatment: hydrogen sulfide from Na2S with a 0.2 flux at 0.3 mg/minute.
(§12) 4. Sulfide treatment: hydrogen sulfide from FeS with a 0.2 flux at 0.3 mg/minute.
(§13) 5. Sulfide treatment: hydrogen sulfide from Desulfovibrio desulfuricans with a 0.2 flux at 0.3 mg/minute.
(§14) 6. Combined treatment: simultaneous application of treatments 2 and 3.
(§15) 7. Combined treatment: simultaneous application of treatments 2 and 4.
(§16) 8. Combined treatment: simultaneous application of treatments 2 and 5.
(§17) All the above treatments had 4 replicas.
(§18) Twenty-four hours after starting the experiment the emerging larvae (Haemonchus sp., T. colubriformis and D. viviparous) and the number of live larvae (Melodogyne incognita) in all the treatments, were counted. This value is the mean of the 4 replicas in every treatment. The variance analysis (ANOVA) was applied to the results obtained in each nematode species in the study, separately; the Duncan test (Lerch G. 1977. La Experimentación en las ciencias biológicas y agrícolas. 1^ra edición, p.p. 203-308, Editorial Científico-Técnica, La Habana) was applied, which is also shown in table 1. […]

[2] = tested on: Trichostrongylus colubriformis; test: as above; type: cell-based; settings: Trichostrongilus eggs, emerging larvae after 24 hours; fraction E = 1 − Ntto/Nc; mean of 4 replicas
Description: as §1, §2, §3, §4, §5, §6, §7, §8, §9, §10, §11, §12, §13, §14, §15, §16, §17, §18

[3] = tested on: Dictyocaulus viviparus; test: as above; type: cell-based; settings: Dictyocaulus eggs, emerging larvae after 24 hours; fraction E = 1 − Ntto/Nc; mean of 4 replicas
Description: as §1
Collections of D. viviparous nematode were made from the infested lung of a bovine (cattle), previously sacrificed. The same procedure was used for Haemochus spp. and T. colubriformis; however, the females were allowed to lay their eggs for 2-3 hours.
as §3, §4, §5
The nematode's eggs and larvae were placed in a number of 100 individuals in approximately 2 ml of LB medium diluted 10 times. This volume was introduced into safety valves that allow the air to go through the liquid and, therefore, the gasses make contact with the eggs and larvae. […]
(§19) Twenty-four hours after starting the experiment the emerging larvae (Haemonchus sp., T. colubriformis and D. viviparous) and the number of live larvae (Melodogyne incognita) in all the treatments, were counted. […]

[4] = tested on: Melodoigyne incognita; test: In vitro nematicidal effect of hydrogen sulfide and chitinase, live larvae (juveniles 2); type: cell-based, Meloidogyne incognita; settings: Meloidogyne larvae, live larvae after 24 hours; fraction E = 1 − Ntto/Nc; mean of 4 replicas
Description: as §1
The collection of egg mass of Meloidogyne incognita was performed from squash roots (Cucurbita pepo), previously infested and cultivated in greenhouses. For this operation a stereoscope microscope and needles with properly altered tips were used. The masses were put in sterile distilled water in Petri dishes at 28° C., in a number of 50 masses per dish. Daily observations were made to check egg hatching. In approximately 72 hours, there were enough larvae to start collecting and disinfecting.
The total volume of water containing the egg masses and the larvae were filtered through a sift net of 60 μm. From that moment on all the manipulation was done under aseptic conditions in a vertical laminar flow, using 24-well tissue culture plates. The eggs detached from the mass were unable to hatch and remained on the sift net of 30 μm; the larvae were collected with a further net of 5 μm. It was introduced into a Hibitane solution at 0.5% for 3 minutes followed by 3 washes with LB medium diluted 10 times in sterile distilled water. Once disinfected, the Meloidogyne incognita larvae were removed from the sift net and carefully resuspended with a LB medium solution diluted 10 times in sterile distilled water. The final collecting and disinfecting results were checked by counting and registering the live larvae with an inverted Olympus microscope.
as §6, with “treatment. […]” for “treatment.”
as §19

| SMILES | Treatment effectiveness (E) [1] | Treatment effectiveness (E) [2] | Treatment effectiveness (E) [3] | Treatment effectiveness (E) [4] |
| --- | --- | --- | --- | --- |
| S [3. Esn, hydrogen sulfide] | 0.41 | 0.40 | 0.44 | 0.51 |
| S [4. Esf, hydrogen sulfide] | 0.40 | 0.39 | 0.42 | 0.52 |
| S [5. Esd, hydrogen sulfide] | 0.37 | 0.38 | 0.40 | 0.47 |

— patent US8268306B2, “Pesticidal and antiparasitic compositions” (Centro de Ingenieria Genetica y Biotecnologia, priority 2001, dated 2012)
